Measurements as given in patent publication US11332472B2, “Substituted piperidines as inhibitors of ubiquitin specific protease 7” (LES LABORATOIRES SERVIER, priority 2017, dated 2022).

Legend:
[1] = tested on: MM 1S multiple myeloma tumour cell line; experiment: In vitro cytotoxicity, MTT assay, MM1S cells; type: cell-based; conditions: Homo sapiens, MM1.S, 96 hours exposure
Protocol: The cytotoxicity studies were evaluated by MTT assay and carried out on MM 1S multiple myeloma or Z138 mantle cell lymphoma tumour cell lines. The cells are distributed onto microplates and exposed to the test compounds for 96 hours. The cell viability is then quantified by a colorimetric assay, the Microculture Tetrazolium Assay (Carmichael et. al., Cancer Res. […], 47, 936-942).

[2] = biological target: T1, USP7 (Homo sapiens, UniProt Q93009, C315A); experiment: Inhibition of USP7 by Fluorescence Intensity (FLINT) readings, Ubiquitin-Rhodamine-110 substrate; type: biochemical; conditions: 0.25 nM His-His-USP7 (aa208-560, [C315A]); compound 60 minutes at 30° C.; 500 nM Ubiquitin-Rhodamine substrate; 11-point curves
T1 construct: 0.25 nM His-His-USP7 (aa208-560, [C315A]) was incubated with compound; His-His (N)
How it was run: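 His-His-USP7 (aa208-560, C315A) at 0.25 nM was preincubated with compound for 60 min at 30 °C in 100 mM Bicine pH 8.0, 0.01% Triton X-100, 1 mM TCEP, 10% DMSO. 500 nM ubiquitin-rhodamine-110 was then added, with fluorescence (Ex 485/Em 535 nm) read every 3 min for 21 min. IC50 came from kinetic-rate inhibition, 11-point curves, 4-parameter fit.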

T1 sequence (Q93009 208-560 C315A): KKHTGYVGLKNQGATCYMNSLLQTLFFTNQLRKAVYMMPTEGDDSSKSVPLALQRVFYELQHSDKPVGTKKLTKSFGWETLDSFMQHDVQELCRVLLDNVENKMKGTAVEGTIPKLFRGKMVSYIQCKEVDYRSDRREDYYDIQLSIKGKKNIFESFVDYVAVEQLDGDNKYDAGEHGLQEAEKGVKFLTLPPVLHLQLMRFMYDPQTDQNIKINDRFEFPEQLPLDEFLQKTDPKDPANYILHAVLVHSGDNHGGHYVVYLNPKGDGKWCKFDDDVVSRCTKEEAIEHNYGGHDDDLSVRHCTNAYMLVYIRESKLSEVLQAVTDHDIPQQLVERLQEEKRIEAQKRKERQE

O=C([C@@H]1CCCC[C@H]1n1cccc1)N1CCC(O)(Cn2cnc3c(ccn3-c3ccccc3)c2=O)CC1 (racemic) [Example 12, 3-[[4-hydroxy-1-[trans-2-pyrrol-1-ylcyclohexanecarbonyl]-4-piperidyl]methyl]-7-phenyl-pyrrolo[2,3-d]pyrimidin-4-one]
IC50 [1]: 34.5 nM
IC50 [2]: 71.1 nM

COc1ccc(-n2ccc3c(=O)n(CC4(O)CCN(C(=O)[C@@H]5CCCC[C@H]5n5cccc5)CC4)cnc32)cc1 (racemic) [Example 15]
IC50 [1]: 8.76 nM
IC50 [2]: 26.1 nM

O=C([C@@H]1CCCC[C@H]1c1ccccc1)N1CCC(O)(Cn2cnc3c(ccn3-c3ccccc3)c2=O)CC1 (relative stereo) [Example 9, 3-[[4-hydroxy-1-(trans-2-phenylcyclohexanecarbonyl)-4-piperidyl]methyl]-7-phenyl-pyrrolo[2,3-d]pyrimidin-4-one]
IC50 [1]: 13.9 nM
IC50 [2]: 35.9 nM

O=C([C@@H]1CCCC[C@H]1c1ccccc1)N1CCC(O)(Cn2cnc3c(nnn3-c3ccccc3)c2=O)CC1 (relative stereo) [Example 18, 6-[[4-hydroxy-1-(trans-2-phenylcyclohexanecarbonyl)-4-piperidyl]methyl]-3-phenyl-triazolo[4,5-d]pyrimidin-7-one]
IC50 [1]: 636 nM
IC50 [2]: 50.6 nM

O=C([C@@H]1CCCC[C@H]1c1ccccc1)N1CCC(O)(Cn2cnc3c(cnn3-c3ccccc3)c2=O)CC1 (relative stereo) [Example 19, 5-[[4-hydroxy-1-(trans-2-phenylcyclohexanecarbonyl)-4-piperidyl]methyl]-1-phenyl-pyrazolo[3,4-d]pyrimidin-4-one]
IC50 [1]: 195 nM
IC50 [2]: 14.3 nM

O=C([C@@H]1CCCC[C@H]1c1ccccc1)N1CCC(O)(Cn2cnc3c(ncn3-c3ccccc3)c2=O)CC1 (relative stereo) [Example 20, 1-[[4-hydroxy-1-(trans-2-phenylcyclohexanecarbonyl)-4-piperidyl]methyl]-9-phenyl-purin-6-one]
IC50 [1]: 210 nM
IC50 [2]: 29.3 nM

COc1ccc(-n2ccc3c(=O)n(CC4(O)CCN(C(=O)[C@@H]5CCCC[C@H]5c5ccccc5)CC4)cnc32)cc1 (relative stereo) [Example 21, 3-[[4-hydroxy-1-(trans-2-phenylcyclohexanecarbonyl) 4-piperidyl]methyl]-7-(4-methoxyphenyl)pyrrolo[2,3-d]pyrimidin-4-one]
IC50 [1]: 3.4 nM
IC50 [2]: 26.9 nM

O=C([C@@H]1CCCC[C@H]1c1ccccc1)N1CCC(O)(Cn2cnc3c(ccn3-c3ccc(Cl)cc3)c2=O)CC1 (relative stereo) [Example 22, 7-(4-chlorophenyl)-3-[[4-hydroxy-1-(trans-2-phenylcyclohexanecarbonyl)-4-piperidyl]methyl]pyrrolo[2,3-d]pyrimidin-4-one]
IC50 [1]: 9.88 nM
IC50 [2]: 31.6 nM

O=C([C@@H]1CCCC[C@H]1c1ccccc1)N1CCC(O)(Cn2cnc3c(ccn3-c3ccsc3)c2=O)CC1 (relative stereo) [Example 23, 3-[[4-hydroxy-1-(trans-2-phenylcyclohexanecarbonyl)-4-piperidyl]methyl]-7-(3-thienyl)pyrrolo[2,3-d]pyrimidin-4-one]
IC50 [1]: 70.1 nM
IC50 [2]: 17.2 nM

COc1ccc(-n2ccc3c(=O)n(CC4(O)CCN(C(=O)[C@@H]5CCCO[C@H]5c5ccccc5)CC4)cnc32)cc1 (relative stereo) [Example 24, 3-[[4-hydroxy-1-[trans-2-phenyltetrahydropyran-3-carbonyl]-4-piperidyl]methyl]-7-(4-methoxyphenyl)pyrrolo[2,3-d]pyrimidin-4-one]
IC50 [1]: 146 nM
IC50 [2]: 217 nM

O=C([C@@H]1CCCC(F)(F)[C@H]1c1ccccc1)N1CCC(O)(Cn2cnc3c(ccn3-c3ccccc3)c2=O)CC1 (relative stereo) [Example 52, 3-[[1-[trans-3,3-difluoro-2-phenyl-cyclohexanecarbonyl]-4-hydroxy-4-piperidyl]methyl]-7-phenyl-pyrrolo[2,3-d]pyrimidin-4-one]
IC50 [1]: 100 nM
IC50 [2]: 71.8 nM

O=C([C@@H]1CCCC[C@H]1c1ccccc1)N1CCC(O)(Cn2cnc3[nH]ccc3c2=O)CC1 (relative stereo) [Example 92, 3-[[4-hydroxy-1-(trans-2-phenylcyclohexanecarbonyl)-4-piperidyl]methyl]-7H-pyrrolo[2,3-d]pyrimidin-4-one]
IC50 [1]: 523 nM
IC50 [2]: 124 nM

O=C(Cc1ccc2c(c1)NC(=O)C2)Nc1ccc2ncn(CC3(O)CCN(C(=O)[C@@H]4CCCC[C@H]4c4ccccc4)CC3)c(=O)c2n1 (relative stereo) [Example 102, N-[3-[[4-hydroxy-1-(trans-2-phenylcyclohexanecarbonyl)-4-piperidyl]methyl]-4-oxo-pyrido[3,2-d]pyrimidin-6-yl]-2-(2-oxoindolin-6-yl)acetamide]
IC50 [1]: 5390 nM
IC50 [2]: 15.8 nM

COc1ccc(-n2ccc3c(=O)n(CC4(O)CCN(C(=O)[C@@H]5CCCC[C@H]5n5cccc5)CC4)cnc32)cc1 (single isomer, unassigned) [Example 17, 3-[[4-hydroxy-1-[trans-2-pyrrol-1-ylcyclohexanecarbonyl]-4-piperidyl]methyl]-7-(4-methoxyphenyl)pyrrolo[2,3-d]pyrimidin-4-one]
IC50 [1]: 4.21 nM
IC50 [2]: 33.5 nM

CN1C(=O)CC[C@@H](C(=O)N2CCC(O)(Cn3cnc4c(ccn4-c4ccccc4)c3=O)CC2)[C@@H]1c1ccccc1 (single isomer, unassigned) [Example 27, 3-[[4-hydroxy-1-[trans-1-methyl-6-oxo-2-phenyl-piperidine-3-carbonyl]-4-piperidyl]methyl]-7-phenyl-pyrrolo[2,3-d]pyrimidin-4-one]
IC50 [1]: 46.5 nM
IC50 [2]: 31.5 nM

COc1ccc(-n2ccc3c(=O)n(CC4(O)CCN(C(=O)[C@@H]5CC(F)(F)CC[C@H]5c5ccccc5)CC4)cnc32)cc1 (single isomer, unassigned) [Example 30, 3-[[1-[trans-5,5-difluoro-2-phenyl-cyclohexanecarbonyl]-4-hydroxy-4-piperidyl]methyl]-7-(4-methoxyphenyl)pyrrolo[2,3-d]pyrimidin-4-one]
IC50 [1]: 10.8 nM
IC50 [2]: 15.9 nM

O=C([C@@H]1CC(F)(F)CC[C@H]1c1ccccc1)N1CCC(O)(Cn2cnc3c(ccn3-c3ccccc3)c2=O)CC1 (single isomer, unassigned) [Example 32, 3-[[1-[trans-5,5-difluoro-2-phenyl-cyclohexanecarbonyl]-4-hydroxy-4-piperidyl]methyl]-7-phenyl-pyrrolo[2,3-d]pyrimidin-4-one]
IC50 [1]: 15.8 nM
IC50 [2]: 35.3 nM

O=C([C@@H]1CCC(F)(F)C[C@H]1c1ccccc1)N1CCC(O)(Cn2cnc3c(ccn3-c3ccccc3)c2=O)CC1 (single isomer, unassigned) [Example 36, 3-[[1-[trans-4,4-difluoro-2-phenyl-cyclohexanecarbonyl]-4-hydroxy-4-piperidyl]methyl]-7-phenyl-pyrrolo[2,3-d]pyrimidin-4-one]
IC50 [1]: 126 nM
IC50 [2]: 75.3 nM

COc1ccc(-n2ccc3c(=O)n(CC4(O)CCN(C(=O)[C@@H]5CCCC[C@H]5c5ccc(F)cc5)CC4)cnc32)cc1 (single isomer, unassigned) [Example 41, 3-[[1-[trans-2-(4-fluorophenyl)cyclohexanecarbonyl]-4-hydroxy-4-piperidyl]methyl]-7-(4-methoxyphenyl)pyrrolo[2,3-d]pyrimidin-4-one]
IC50 [1]: 7.22 nM
IC50 [2]: 13 nM

O=C([C@@H]1CCCC[C@H]1c1ccc(F)cc1)N1CCC(O)(Cn2cnc3c(ccn3-c3ccccc3)c2=O)CC1 (single isomer, unassigned) [Example 43, 3-[[1-[trans-2-(4-fluorophenyl)cyclohexanecarbonyl]-4-hydroxy-4-piperidyl]methyl]-7-phenyl-pyrrolo[2,3-d]pyrimidin-4-one]
IC50 [1]: 32.3 nM
IC50 [2]: 9.81 nM

COc1ccc(-n2ccc3c(=O)n(CC4(O)CCN(C(=O)[C@@H]5CCC(F)(F)C[C@H]5c5ccoc5)CC4)cnc32)cc1 (single isomer, unassigned) [Example 75, 3-[[1-[trans-4,4-difluoro-2-(3-furyl)cyclohexanecarbonyl]-4-hydroxy-4-piperidyl]methyl]-7-(4-methoxyphenyl)pyrrolo[2,3-d]pyrimidin-4-one]
IC50 [1]: 3.29 nM
IC50 [2]: 59.1 nM

COc1ccc(-n2ccc3c(=O)n(CC4(O)CCN(C(=O)C5CCC(=O)N(C)C5c5ccccc5)CC4)cnc32)cc1 (single isomer, unassigned) [Example 117, 3-{[4-hydroxy-1-trans-1-methyl-6-oxo-2-phenylpiperidine-3-carbonyl)piperidin-4-yl]methyl}-7-(4-methoxyphenyl)-3,7-dihydro-4H-pyrrolo[2,3-d]pyrimidin-4-one]
IC50 [1]: 26.4 nM
IC50 [2]: 30.9 nM

COc1ccc(-n2ccc3c(=O)n(CC4(O)CCN(C(=O)C5CCCN5c5ccccc5)CC4)cnc32)cc1 (stereo not shown) [Example 11, 3-[[4-hydroxy-1-(1-phenylpyrrolidine-2-carbonyl)-4-piperidyl]methyl]-7-(4-methoxyphenyl)pyrrolo[2,9-d]pyrimidin-4-one]
IC50 [2]: 2570 nM

O=C(Cc1c[nH]c2ccc(O)cc12)Nc1ccc2ncn(CC3(O)CCN(C(=O)C4CCCCC4c4ccccc4)CC3)c(=O)c2n1 (stereo not drawn) [Example 105, 2-(5-hydroxy-1H-idol-3-yl)-N-[3-[[4-hydroxy-1-(trans-2-phenylcyclohexanecarbonyl)-4-piperidyl]methyl]-4-oxo-pyrido[3,2-d]pyrimidin-6-yl]acetamide]
IC50 [2]: 15.3 nM
